Measurements as given in ChEMBL document CHEMBL5465560, “Selectivity Literature for EUbOPEN Chemogenomic Library” (2024).

Legend:
[1] = target: Vascular endothelial growth factor receptor 1 (Homo sapiens) (UniProt P17948); experiment: Selectivity interaction (Kinase screening (Nanosyn)) EUB0000604a FLT1
[2] = target: Dual specificity mitogen-activated protein kinase kinase 1 (Homo sapiens, UniProt Q02750)
[3] = target: Serine/threonine-protein kinase 32C (Homo sapiens) (UniProt Q86UX6); experiment: Selectivity interaction (KinomeScan (DiscoverX)) EUB0000092b STK32C; settings: at 10 µM
Sequence of Serine/threonine-protein kinase 32C (Homo sapiens) (Q86UX6 whole entry): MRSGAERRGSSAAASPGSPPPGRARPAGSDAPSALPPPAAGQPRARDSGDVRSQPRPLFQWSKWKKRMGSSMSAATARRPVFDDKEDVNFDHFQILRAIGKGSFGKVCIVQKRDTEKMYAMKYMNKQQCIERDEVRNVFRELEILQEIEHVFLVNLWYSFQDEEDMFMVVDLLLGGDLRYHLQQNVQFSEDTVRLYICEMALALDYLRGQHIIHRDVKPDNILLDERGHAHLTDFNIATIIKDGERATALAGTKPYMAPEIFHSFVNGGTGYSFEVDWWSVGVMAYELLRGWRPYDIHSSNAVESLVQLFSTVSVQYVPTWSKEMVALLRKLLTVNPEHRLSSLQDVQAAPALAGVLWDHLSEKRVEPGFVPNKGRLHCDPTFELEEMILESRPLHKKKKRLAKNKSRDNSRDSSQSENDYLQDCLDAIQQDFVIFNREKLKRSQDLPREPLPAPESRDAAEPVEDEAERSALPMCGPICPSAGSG

[4] = target: Fibroblast growth factor receptor 4 (Homo sapiens, UniProt P22455); settings: at 10 µM
Sequence of Fibroblast growth factor receptor 4 (P22455 22-802 limits assumed): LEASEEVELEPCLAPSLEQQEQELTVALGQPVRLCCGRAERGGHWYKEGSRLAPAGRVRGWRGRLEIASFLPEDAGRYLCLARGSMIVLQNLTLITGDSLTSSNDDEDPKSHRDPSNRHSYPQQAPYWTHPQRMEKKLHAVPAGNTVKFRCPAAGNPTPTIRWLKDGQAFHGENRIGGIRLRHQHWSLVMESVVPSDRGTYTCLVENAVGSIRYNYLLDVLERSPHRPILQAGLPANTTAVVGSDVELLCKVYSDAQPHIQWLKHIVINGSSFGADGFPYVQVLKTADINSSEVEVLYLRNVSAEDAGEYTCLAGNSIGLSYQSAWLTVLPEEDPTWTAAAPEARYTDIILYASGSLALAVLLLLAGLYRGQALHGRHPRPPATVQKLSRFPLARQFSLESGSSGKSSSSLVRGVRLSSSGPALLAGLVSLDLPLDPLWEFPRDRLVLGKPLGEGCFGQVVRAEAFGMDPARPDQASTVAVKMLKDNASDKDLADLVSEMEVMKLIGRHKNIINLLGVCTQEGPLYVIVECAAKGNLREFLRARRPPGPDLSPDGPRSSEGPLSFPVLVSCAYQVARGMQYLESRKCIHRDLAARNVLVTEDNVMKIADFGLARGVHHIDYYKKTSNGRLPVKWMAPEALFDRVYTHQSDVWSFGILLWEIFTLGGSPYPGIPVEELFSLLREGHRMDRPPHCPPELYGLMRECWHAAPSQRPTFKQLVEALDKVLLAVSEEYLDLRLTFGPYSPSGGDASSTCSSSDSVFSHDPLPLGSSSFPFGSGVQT

[5] = target: T1, Ephrin type-A receptor 6 (Homo sapiens) (UniProt Q9UF33); experiment: Selectivity interaction (KinomeScan (DiscoverX)) EUB0001619a EPHA6; settings: at 1 µM
T1 sequence (whole entry): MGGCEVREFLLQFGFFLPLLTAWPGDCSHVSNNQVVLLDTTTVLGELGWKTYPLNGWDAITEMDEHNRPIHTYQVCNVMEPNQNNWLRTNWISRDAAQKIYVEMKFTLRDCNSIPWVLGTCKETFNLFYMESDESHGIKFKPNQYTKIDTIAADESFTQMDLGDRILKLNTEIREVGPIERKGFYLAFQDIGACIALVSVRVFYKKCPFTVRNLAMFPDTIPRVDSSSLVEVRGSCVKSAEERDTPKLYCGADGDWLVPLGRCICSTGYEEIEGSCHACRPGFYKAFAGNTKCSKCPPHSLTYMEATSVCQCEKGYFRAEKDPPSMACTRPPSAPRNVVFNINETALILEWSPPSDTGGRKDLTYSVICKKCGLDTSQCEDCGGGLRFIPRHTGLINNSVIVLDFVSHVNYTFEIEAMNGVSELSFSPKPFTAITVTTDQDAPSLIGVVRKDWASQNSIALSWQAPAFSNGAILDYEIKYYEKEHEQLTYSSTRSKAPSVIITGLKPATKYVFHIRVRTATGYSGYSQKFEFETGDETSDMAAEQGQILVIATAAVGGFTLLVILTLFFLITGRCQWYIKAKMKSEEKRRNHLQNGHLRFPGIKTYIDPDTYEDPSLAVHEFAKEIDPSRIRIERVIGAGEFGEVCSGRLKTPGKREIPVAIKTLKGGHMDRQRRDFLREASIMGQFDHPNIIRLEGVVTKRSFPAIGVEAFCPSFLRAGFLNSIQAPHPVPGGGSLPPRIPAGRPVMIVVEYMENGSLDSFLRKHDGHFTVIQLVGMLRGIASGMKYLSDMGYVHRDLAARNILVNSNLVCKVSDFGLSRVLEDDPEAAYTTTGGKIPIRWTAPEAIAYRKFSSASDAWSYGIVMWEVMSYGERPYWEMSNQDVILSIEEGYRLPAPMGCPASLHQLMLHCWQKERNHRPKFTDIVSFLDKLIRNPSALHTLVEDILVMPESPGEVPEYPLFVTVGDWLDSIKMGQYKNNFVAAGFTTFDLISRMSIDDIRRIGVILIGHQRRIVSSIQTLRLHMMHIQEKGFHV

[6] = target: T2, Phosphatidylinositol 3-kinase C2 domain-containing subunit gamma (Homo sapiens) (UniProt O75747); experiment: Selectivity interaction (KinomeScan (DiscoverX)) EUB0001619a PIK3C2G; settings: at 1 µM
T2 sequence (whole entry): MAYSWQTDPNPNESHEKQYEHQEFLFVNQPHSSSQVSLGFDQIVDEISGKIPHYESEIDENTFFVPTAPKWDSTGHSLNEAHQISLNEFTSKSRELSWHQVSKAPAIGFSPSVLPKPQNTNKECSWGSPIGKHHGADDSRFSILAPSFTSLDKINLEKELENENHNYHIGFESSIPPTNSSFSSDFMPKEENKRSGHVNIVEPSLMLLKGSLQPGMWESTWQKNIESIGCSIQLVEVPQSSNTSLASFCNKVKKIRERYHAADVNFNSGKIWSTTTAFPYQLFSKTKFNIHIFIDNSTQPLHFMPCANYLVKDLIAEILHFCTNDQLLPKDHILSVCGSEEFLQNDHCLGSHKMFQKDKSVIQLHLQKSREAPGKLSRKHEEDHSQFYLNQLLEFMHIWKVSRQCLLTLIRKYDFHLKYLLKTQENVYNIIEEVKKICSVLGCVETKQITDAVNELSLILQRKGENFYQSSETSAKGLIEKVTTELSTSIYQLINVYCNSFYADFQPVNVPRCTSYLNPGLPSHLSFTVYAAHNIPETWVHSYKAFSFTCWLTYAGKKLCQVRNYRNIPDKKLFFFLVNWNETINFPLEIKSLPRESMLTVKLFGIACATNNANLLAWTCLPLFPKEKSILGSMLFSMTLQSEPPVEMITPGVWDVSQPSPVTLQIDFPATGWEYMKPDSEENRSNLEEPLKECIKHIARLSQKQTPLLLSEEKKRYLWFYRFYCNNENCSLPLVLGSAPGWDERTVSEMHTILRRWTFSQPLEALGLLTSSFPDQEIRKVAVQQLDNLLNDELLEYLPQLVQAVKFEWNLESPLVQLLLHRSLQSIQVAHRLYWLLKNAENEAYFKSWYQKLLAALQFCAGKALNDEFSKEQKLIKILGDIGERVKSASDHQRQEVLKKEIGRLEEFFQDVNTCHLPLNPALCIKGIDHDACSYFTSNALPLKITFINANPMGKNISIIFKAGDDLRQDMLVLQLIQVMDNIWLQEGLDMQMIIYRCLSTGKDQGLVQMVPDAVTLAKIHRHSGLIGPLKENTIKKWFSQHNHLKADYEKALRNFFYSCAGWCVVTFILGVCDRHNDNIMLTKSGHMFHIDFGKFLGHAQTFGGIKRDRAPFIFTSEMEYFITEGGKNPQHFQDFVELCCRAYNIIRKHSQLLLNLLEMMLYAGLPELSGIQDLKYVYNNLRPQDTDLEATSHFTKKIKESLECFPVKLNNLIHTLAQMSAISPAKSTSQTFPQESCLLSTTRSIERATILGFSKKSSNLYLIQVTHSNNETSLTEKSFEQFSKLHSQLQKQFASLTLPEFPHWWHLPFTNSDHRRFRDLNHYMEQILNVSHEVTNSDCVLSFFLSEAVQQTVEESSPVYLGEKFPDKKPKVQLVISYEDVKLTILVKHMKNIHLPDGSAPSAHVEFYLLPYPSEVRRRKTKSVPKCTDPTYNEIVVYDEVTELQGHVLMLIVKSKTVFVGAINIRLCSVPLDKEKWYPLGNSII

Sequence of Dual specificity mitogen-activated protein kinase kinase 1 (Q02750 whole entry): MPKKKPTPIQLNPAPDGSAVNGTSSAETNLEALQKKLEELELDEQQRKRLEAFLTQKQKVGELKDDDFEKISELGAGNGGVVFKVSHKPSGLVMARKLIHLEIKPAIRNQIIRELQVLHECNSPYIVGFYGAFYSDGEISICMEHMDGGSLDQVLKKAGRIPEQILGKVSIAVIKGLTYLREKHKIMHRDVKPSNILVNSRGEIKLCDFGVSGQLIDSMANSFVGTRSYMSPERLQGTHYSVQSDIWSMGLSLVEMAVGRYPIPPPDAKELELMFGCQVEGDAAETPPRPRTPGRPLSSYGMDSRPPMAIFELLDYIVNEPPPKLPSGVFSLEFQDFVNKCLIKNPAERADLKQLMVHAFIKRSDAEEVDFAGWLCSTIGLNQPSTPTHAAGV
Sequence of Vascular endothelial growth factor receptor 1 (Homo sapiens) (P17948 whole entry): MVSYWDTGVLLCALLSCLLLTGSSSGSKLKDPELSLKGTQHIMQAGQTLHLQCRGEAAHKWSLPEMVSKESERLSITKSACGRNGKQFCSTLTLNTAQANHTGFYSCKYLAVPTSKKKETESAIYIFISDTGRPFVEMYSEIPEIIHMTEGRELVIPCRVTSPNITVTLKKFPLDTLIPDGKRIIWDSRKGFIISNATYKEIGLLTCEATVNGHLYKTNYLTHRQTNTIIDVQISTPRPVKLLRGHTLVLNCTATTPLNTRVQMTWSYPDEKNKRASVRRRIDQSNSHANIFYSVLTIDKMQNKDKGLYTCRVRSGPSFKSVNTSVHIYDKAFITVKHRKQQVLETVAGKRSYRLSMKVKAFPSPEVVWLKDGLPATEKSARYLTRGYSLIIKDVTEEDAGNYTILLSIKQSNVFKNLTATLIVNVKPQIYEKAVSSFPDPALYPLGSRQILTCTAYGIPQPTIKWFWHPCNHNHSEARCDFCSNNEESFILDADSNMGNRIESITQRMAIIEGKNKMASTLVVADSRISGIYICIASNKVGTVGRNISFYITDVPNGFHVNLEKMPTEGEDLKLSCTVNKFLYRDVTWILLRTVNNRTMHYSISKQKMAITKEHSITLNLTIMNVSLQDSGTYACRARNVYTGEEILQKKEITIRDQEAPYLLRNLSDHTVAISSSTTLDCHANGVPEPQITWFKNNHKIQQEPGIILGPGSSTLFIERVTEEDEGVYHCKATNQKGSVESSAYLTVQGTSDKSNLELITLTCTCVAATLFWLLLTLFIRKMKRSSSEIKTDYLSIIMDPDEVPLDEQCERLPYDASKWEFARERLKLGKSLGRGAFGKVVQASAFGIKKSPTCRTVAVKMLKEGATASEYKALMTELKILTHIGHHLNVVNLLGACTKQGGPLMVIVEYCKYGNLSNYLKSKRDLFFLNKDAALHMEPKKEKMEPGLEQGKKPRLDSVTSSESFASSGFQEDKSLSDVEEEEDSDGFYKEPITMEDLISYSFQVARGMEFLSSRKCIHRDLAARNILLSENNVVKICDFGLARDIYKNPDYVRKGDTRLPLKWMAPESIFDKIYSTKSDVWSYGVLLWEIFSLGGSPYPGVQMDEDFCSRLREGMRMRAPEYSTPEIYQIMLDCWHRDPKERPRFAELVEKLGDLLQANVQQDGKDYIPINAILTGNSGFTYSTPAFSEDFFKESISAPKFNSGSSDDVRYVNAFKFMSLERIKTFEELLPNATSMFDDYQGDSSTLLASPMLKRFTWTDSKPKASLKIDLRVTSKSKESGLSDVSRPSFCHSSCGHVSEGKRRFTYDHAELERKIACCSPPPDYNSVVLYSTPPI

SMILES: Cc1cnc(Nc2ccc(F)cc2Cl)nc1-c1c[nH]c(C(=O)N[C@H](CO)c2cccc(Cl)c2)c1
- % of inhibition [1]: 0%

SMILES: CC(=O)Nc1cccc(-n2c(=O)n(C3CC3)c(=O)c3c(Nc4ccc(I)cc4F)n(C)c(=O)c(C)c32)c1
- Kdapp [2]: 62 nM

SMILES: CCC(=O)N1CCN(c2ccc(-n3c(=O)ccc4cnc5ccc(-c6cnc7ccccc7c6)cc5c43)cc2C(F)(F)F)CC1
- % of control [3]: 100%

SMILES: Cc1cc([C@@H](C)Nc2ccccc2C(=O)O)c2nc(N3CCOCC3)cc(=O)n2c1 [AZD-6482]
- % of control [4]: 100%

SMILES: N#Cc1cccc(-c2c[nH]c3ncnc(N4CCOCC4)c23)c1
- % of control [5]: 100%
- % of control [6]: 100%
